From ChEMBL document CHEMBL3045874, “2,4-D based herbicidal ionic liquids” (Tetrahedron, 2012)

Test system: not listed separately
Assay: Cold crystallization temperature of the compound
Assay type: physicochemical
Conditions: not given
`CCCCCCCCCC[N+](C)(C)CCCCCCCCCC.O=C([O-])COc1ccc(Cl)cc1Cl` [DIDECYLDIMETHYLAMMONIUM(2,4-DICHLOROPHENOXY)ACETATE] showed a T of -39 °C.

Test system: not listed separately
Assay: Decomposition temperature of the compound
Assay type: physicochemical
Conditions: not given
In the case of `CCCCCCCCCCSC[N+](C)(C)CCO.O=C([O-])COc1ccc(Cl)cc1Cl`, the T is reported as 219 °C. For `C[N+](C)(CCO)COC1CCCCCCCCCCC1.O=C([O-])COc1ccc(Cl)cc1Cl`, the T was 280 °C. Work on `C=CC[N+](C)(C)CC=C.O=C([O-])COc1ccc(Cl)cc1Cl` [DIALLYLDIMETHYLAMMONIUM(2,4-DICHLOROPHENOXY)ACETATE] yielded a T of 196 °C. `CCCCCCCCCC[N+](C)(C)CCCCCCCCCC.O=C([O-])COc1ccc(Cl)cc1Cl` [DIDECYLDIMETHYLAMMONIUM(2,4-DICHLOROPHENOXY)ACETATE] gave a T of 260 °C. For `CCCCCCCCCCCCCCCC[N+](C)(C)CCO.O=C([O-])COc1ccc(Cl)cc1Cl` [DODECYLDI(POLYOXYETHYLENE)METHYLAMMONIUM(2,4-DICHLOROPHENOXY)ACETATE], the T was 285 °C. Work on `CCCCCCCCCCCC[N+](C)(C)CCOc1ccccc1.O=C([O-])COc1ccc(Cl)cc1Cl` [DODECYLDIMETHYLPHENOXYETHYLAMMONIUM(2,4-DICHLOROPHENOXY)ACETATE] yielded a T of 273 °C. With `CCCCCCCCCCCCCCCC[N+](C)(C)C.O=C([O-])COc1ccc(Cl)cc1Cl` [HEXADECYLTRIMETHYLAMMONIUM(2,4-DICHLOROPHENOXY)ACETATE] the T was 253 °C.

Test system: Chenopodium album
Assay: Herbicidal activity against Chenopodium album assessed as weed control at 0.02 M measured after 6 days of treatment relative to control
Assay type: functional
Conditions: not given
In the case of `O=C([O-])COc1ccc(Cl)cc1Cl.[Na+]`, the Activity is reported as 60%. `CCCCCCCCCC[N+](C)(C)CCCCCCCCCC.O=C([O-])COc1ccc(Cl)cc1Cl` [DIDECYLDIMETHYLAMMONIUM(2,4-DICHLOROPHENOXY)ACETATE] gave an Activity of 98%.

Test system: not given
Conditions: buffer
In the case of `CCCC[N+]1(C)CCOCC1.O=C([O-])COc1ccc(Cl)cc1Cl`, the solubility is reported as “soluble”. In the case of `CCCC[N+]1(C)CCCC1.O=C([O-])COc1ccc(Cl)cc1Cl`, the solubility is reported as “soluble”. With `CCCCCOC[N+]1(C)CCCCC1.O=C([O-])COc1ccc(Cl)cc1Cl` the solubility was “soluble”. With `CCCOC[N+]1(C)CCCCC1.O=C([O-])COc1ccc(Cl)cc1Cl` the solubility was “soluble”. In the case of `C[N+]1(C)CCCCC1.O=C([O-])COc1ccc(Cl)cc1Cl`, the solubility is reported as “soluble”. With `C[n+]1cccc(C(N)=O)c1.O=C([O-])COc1ccc(Cl)cc1Cl` the solubility was “soluble”. For `CCCCCCCCCCCCCCCC[n+]1ccccc1.O=C([O-])COc1ccc(Cl)cc1Cl`, the solubility was “soluble”. In the case of `CCCCCCCCSCn1cc[n+](C)c1.O=C([O-])COc1ccc(Cl)cc1Cl`, the solubility is reported as “soluble”. For `CCCCCCCCOCn1cc[n+](C)c1.O=C([O-])COc1ccc(Cl)cc1Cl`, the solubility was “soluble”. In the case of `CCCCCCCCCCSC[N+](C)(C)CCO.O=C([O-])COc1ccc(Cl)cc1Cl`, the solubility is reported as “soluble”. With `C=CC[N+](C)(C)CC=C.O=C([O-])COc1ccc(Cl)cc1Cl` [DIALLYLDIMETHYLAMMONIUM(2,4-DICHLOROPHENOXY)ACETATE] the solubility was “soluble”.

Test system: Centaurea cyanus
Assay: Herbicidal activity against Centaurea cyanus assessed as weed control at 450 g/ha
Assay type: functional
Conditions: not given
In the case of `CNC.O=C(O)COc1ccc(Cl)cc1Cl` [2,4-D-Dimethylammonium], the Activity is reported as 20%. In the case of `CCCCCC(CC)OC(=O)COc1ccc(Cl)cc1Cl` [2,4-D-Ethylhexyl], the Activity is reported as 80%.

Test system: Thlaspi arvense
Assay: Herbicidal activity against Thlaspi arvense assessed as weed control at 0.02 M measured after 6 days of treatment relative to control
Assay type: functional
Conditions: not given
`O=C([O-])COc1ccc(Cl)cc1Cl.[Na+]` gave an Activity of 48%. `CCCCCCCCCC[N+](C)(C)CCCCCCCCCC.O=C([O-])COc1ccc(Cl)cc1Cl` [DIDECYLDIMETHYLAMMONIUM(2,4-DICHLOROPHENOXY)ACETATE] gave an Activity of 96%.

Test system: Chenopodium album
Assay: Herbicidal activity against Chenopodium album assessed as weed control at 450 g/ha
Assay type: functional
Conditions: not given
`CNC.O=C(O)COc1ccc(Cl)cc1Cl` [2,4-D-Dimethylammonium] showed an Activity of 60%. With `CCCCCC(CC)OC(=O)COc1ccc(Cl)cc1Cl` [2,4-D-Ethylhexyl] the Activity was 100%.

Test system: Capsella bursa-pastoris
Assay: Herbicidal activity against Capsella bursa-pastoris assessed as weed control at 0.02 M measured after 30 days of treatment relative to control
Assay type: functional
Conditions: not given
For `O=C([O-])COc1ccc(Cl)cc1Cl.[Na+]`, the Activity was 100%. Work on `CCCCCCCCCC[N+](C)(C)CCCCCCCCCC.O=C([O-])COc1ccc(Cl)cc1Cl` [DIDECYLDIMETHYLAMMONIUM(2,4-DICHLOROPHENOXY)ACETATE] yielded an Activity of 100%.

Test system: Capsella bursa-pastoris
Assay: Herbicidal activity against Capsella bursa-pastoris assessed as weed control at 0.01 M measured after 30 days of treatment relative to control
Assay type: functional
Conditions: not given
`O=C([O-])COc1ccc(Cl)cc1Cl.[Na+]` showed an Activity of 100%. `CCCCCCCCCC[N+](C)(C)CCCCCCCCCC.O=C([O-])COc1ccc(Cl)cc1Cl` [DIDECYLDIMETHYLAMMONIUM(2,4-DICHLOROPHENOXY)ACETATE] gave an Activity of 100%.

Test system: Thlaspi arvense
Assay: Herbicidal activity against Thlaspi arvense assessed as weed control at 0.01 M measured after 6 days of treatment relative to control
Assay type: functional
Conditions: not given
Compound `O=C([O-])COc1ccc(Cl)cc1Cl.[Na+]` has an Activity of 31%. Compound `CCCCCCCCCC[N+](C)(C)CCCCCCCCCC.O=C([O-])COc1ccc(Cl)cc1Cl` [DIDECYLDIMETHYLAMMONIUM(2,4-DICHLOROPHENOXY)ACETATE] has an Activity of 82%.

Test system: not listed separately
Assay: Melting point of the compound
Assay type: physicochemical
Conditions: not given
`C[N+](C)(CCO)COC1CCCCCCCCCCC1.O=C([O-])COc1ccc(Cl)cc1Cl` showed a Tm of 108 °C. `CCCCCCCCCC[N+](C)(C)CCCCCCCCCC.O=C([O-])COc1ccc(Cl)cc1Cl` [DIDECYLDIMETHYLAMMONIUM(2,4-DICHLOROPHENOXY)ACETATE] gave a Tm of -3 °C. `CCCCCCCCCCCCCCCC[N+](C)(C)C.O=C([O-])COc1ccc(Cl)cc1Cl` [HEXADECYLTRIMETHYLAMMONIUM(2,4-DICHLOROPHENOXY)ACETATE] showed a Tm of -20 °C.

Test system: not listed separately
Assay: Glass transition temperature of the compound
Assay type: physicochemical
Conditions: not given
`CCCCCCCCCCSC[N+](C)(C)CCO.O=C([O-])COc1ccc(Cl)cc1Cl` gave a T of -35 °C. In the case of `C=CC[N+](C)(C)CC=C.O=C([O-])COc1ccc(Cl)cc1Cl` [DIALLYLDIMETHYLAMMONIUM(2,4-DICHLOROPHENOXY)ACETATE], the T is reported as -42 °C. In the case of `CCCCCCCCCC[N+](C)(C)CCCCCCCCCC.O=C([O-])COc1ccc(Cl)cc1Cl` [DIDECYLDIMETHYLAMMONIUM(2,4-DICHLOROPHENOXY)ACETATE], the T is reported as -50 °C. With `CCCCCCCCCCCCCCCC[N+](C)(C)CCO.O=C([O-])COc1ccc(Cl)cc1Cl` [DODECYLDI(POLYOXYETHYLENE)METHYLAMMONIUM(2,4-DICHLOROPHENOXY)ACETATE] the T was -54 °C. In the case of `CCCCCCCCCCCC[N+](C)(C)CCOc1ccccc1.O=C([O-])COc1ccc(Cl)cc1Cl` [DODECYLDIMETHYLPHENOXYETHYLAMMONIUM(2,4-DICHLOROPHENOXY)ACETATE], the T is reported as -42 °C.

Test system: Capsella bursa-pastoris
Assay: Herbicidal activity against Capsella bursa-pastoris assessed as weed control at 0.02 M measured after 6 days of treatment relative to control
Assay type: functional
Conditions: not given
Compound `O=C([O-])COc1ccc(Cl)cc1Cl.[Na+]` has an Activity of 55%. Compound `CCCCCCCCCC[N+](C)(C)CCCCCCCCCC.O=C([O-])COc1ccc(Cl)cc1Cl` [DIDECYLDIMETHYLAMMONIUM(2,4-DICHLOROPHENOXY)ACETATE] has an Activity of 99%.

Test system: Capsella bursa-pastoris
Assay: Herbicidal activity against Capsella bursa-pastoris assessed as weed control at 0.01 M measured after 6 days of treatment relative to control
Assay type: functional
Conditions: not given
For `O=C([O-])COc1ccc(Cl)cc1Cl.[Na+]`, the Activity was 28%. For `CCCCCCCCCC[N+](C)(C)CCCCCCCCCC.O=C([O-])COc1ccc(Cl)cc1Cl` [DIDECYLDIMETHYLAMMONIUM(2,4-DICHLOROPHENOXY)ACETATE], the Activity was 81%.

Test system: Chenopodium album
Assay: Herbicidal activity against Chenopodium album assessed as weed control at 0.01 M measured after 30 days of treatment relative to control
Assay type: functional
Conditions: not given
In the case of `O=C([O-])COc1ccc(Cl)cc1Cl.[Na+]`, the Activity is reported as 25%. With `CCCCCCCCCC[N+](C)(C)CCCCCCCCCC.O=C([O-])COc1ccc(Cl)cc1Cl` [DIDECYLDIMETHYLAMMONIUM(2,4-DICHLOROPHENOXY)ACETATE] the Activity was 100%.

Test system: Thlaspi arvense
Assay: Herbicidal activity against Thlaspi arvense assessed as weed control at 0.01 M measured after 30 days of treatment relative to control
Assay type: functional
Conditions: not given
`O=C([O-])COc1ccc(Cl)cc1Cl.[Na+]` gave an Activity of 100%. `CCCCCCCCCC[N+](C)(C)CCCCCCCCCC.O=C([O-])COc1ccc(Cl)cc1Cl` [DIDECYLDIMETHYLAMMONIUM(2,4-DICHLOROPHENOXY)ACETATE] showed an Activity of 100%.

Test system: Chenopodium album
Assay: Herbicidal activity against Chenopodium album assessed as weed control at 0.02 M measured after 30 days of treatment relative to control
Assay type: functional
Conditions: not given
`O=C([O-])COc1ccc(Cl)cc1Cl.[Na+]` gave an Activity of 75%. `CCCCCCCCCC[N+](C)(C)CCCCCCCCCC.O=C([O-])COc1ccc(Cl)cc1Cl` [DIDECYLDIMETHYLAMMONIUM(2,4-DICHLOROPHENOXY)ACETATE] showed an Activity of 100%.

Test system: Chenopodium album
Assay: Herbicidal activity against Chenopodium album assessed as weed control at 0.01 M measured after 6 days of treatment relative to control
Assay type: functional
Conditions: not given
Compound `O=C([O-])COc1ccc(Cl)cc1Cl.[Na+]` has an Activity of 55%. For `CCCCCCCCCC[N+](C)(C)CCCCCCCCCC.O=C([O-])COc1ccc(Cl)cc1Cl` [DIDECYLDIMETHYLAMMONIUM(2,4-DICHLOROPHENOXY)ACETATE], the Activity was 89%.

Test system: Thlaspi arvense
Assay: Herbicidal activity against Thlaspi arvense assessed as weed control at 0.02 M measured after 30 days of treatment relative to control
Assay type: functional
Conditions: not given
For `O=C([O-])COc1ccc(Cl)cc1Cl.[Na+]`, the Activity was 100%. `CCCCCCCCCC[N+](C)(C)CCCCCCCCCC.O=C([O-])COc1ccc(Cl)cc1Cl` [DIDECYLDIMETHYLAMMONIUM(2,4-DICHLOROPHENOXY)ACETATE] showed an Activity of 100%.

Test system: not listed separately
Assay: Decomposition temperature of 5 % of the compound
Assay type: physicochemical
Conditions: not given
In the case of `CCCCCCCCCCSC[N+](C)(C)CCO.O=C([O-])COc1ccc(Cl)cc1Cl`, the T is reported as 205 °C. `C[N+](C)(CCO)COC1CCCCCCCCCCC1.O=C([O-])COc1ccc(Cl)cc1Cl` gave a T of 242 °C. For `C=CC[N+](C)(C)CC=C.O=C([O-])COc1ccc(Cl)cc1Cl` [DIALLYLDIMETHYLAMMONIUM(2,4-DICHLOROPHENOXY)ACETATE], the T was 187 °C. Compound `CCCCCCCCCC[N+](C)(C)CCCCCCCCCC.O=C([O-])COc1ccc(Cl)cc1Cl` [DIDECYLDIMETHYLAMMONIUM(2,4-DICHLOROPHENOXY)ACETATE] has a T of 208 °C. `CCCCCCCCCCCCCCCC[N+](C)(C)CCO.O=C([O-])COc1ccc(Cl)cc1Cl` [DODECYLDI(POLYOXYETHYLENE)METHYLAMMONIUM(2,4-DICHLOROPHENOXY)ACETATE] showed a T of 219 °C. Work on `CCCCCCCCCCCC[N+](C)(C)CCOc1ccccc1.O=C([O-])COc1ccc(Cl)cc1Cl` [DODECYLDIMETHYLPHENOXYETHYLAMMONIUM(2,4-DICHLOROPHENOXY)ACETATE] yielded a T of 214 °C. Compound `CCCCCCCCCCCCCCCC[N+](C)(C)C.O=C([O-])COc1ccc(Cl)cc1Cl` [HEXADECYLTRIMETHYLAMMONIUM(2,4-DICHLOROPHENOXY)ACETATE] has a T of 218 °C.
